# Reference: ChEMBL document CHEMBL2375272, “Identification of RC-33 as a potent and selective σ1 receptor agonist potentiating NGF-induced neurite outgrowth in PC12 cells. Part 2: g-scale synthesis, physicochemical characterization and in vitro metabolic stability” (Bioorg Med Chem, 2013)
# Assays:
# [1] = Half life in human liver S9 fraction by UPLC-UV-PAD method in presence of NADPH; format: ADME, subcellular
# [2] = Half life in rat liver S9 fraction by UPLC-UV-PAD method in presence of NADPH; format: ADME, subcellular
# [3] = Drug metabolism in human liver S9 fraction assessed as oxidative metabolism after 4 hrs by UPLC-UV-PAD method in presence of NADPH; format: ADME, subcellular; conditions: read-out: Drug metabolism
# [4] = Drug metabolism in rat liver S9 fraction assessed as oxidative metabolism after 4 hrs by UPLC-UV-PAD method in presence of NADPH; format: ADME, subcellular; conditions: read-out: Drug metabolism
# [5] = Drug metabolism in human liver S9 fraction assessed as non-oxidative metabolism after 4 hrs by UPLC-UV-PAD method; format: ADME, subcellular; conditions: read-out: Drug metabolism
# [6] = Drug metabolism in rat liver S9 fraction assessed as non-oxidative metabolism after 4 hrs by UPLC-UV-PAD method; format: ADME, subcellular; conditions: read-out: Drug metabolism
# [7] = Drug metabolism in dog plasma after 4 hrs by UPLC-UV/PAD method; format: ADME, cell-free, Canis lupus familiaris; conditions: read-out: Drug metabolism
# [8] = Drug metabolism in human plasma after 4 hrs by UPLC-UV/PAD method; format: ADME, cell-free; conditions: read-out: Drug metabolism
# [9] = Drug metabolism in rat plasma after 4 hrs by UPLC-UV/PAD method; format: ADME, cell-free; conditions: read-out: Drug metabolism
# Blood [10] = test: Metabolic stability in rat blood after 4 hrs by UPLC-UV/PAD method; format: ADME, tissue-based
# Blood [11] = test: Metabolic stability in mouse blood after 4 hrs by UPLC-UV/PAD method; format: ADME, tissue-based
# [12] = Solubility of the compound in physiological solution by UV spectrophotometric analysis; format: physicochemical
# [13] = Solubility of the compound in phosphate buffer at pH 7.4 by UV spectrophotometric analysis; format: physicochemical
# [14] = Solubility of the compound in water by UV spectrophotometric analysis; format: physicochemical
smiles,measurement,setting,value
CC(CCN1CCCCC1)c1ccc(-c2ccccc2)cc1.Cl (racemic),half-life,[1],2.17 h
same,half-life,[2],1.89 h
same,metabolised at 4 h,[3],69%
same,metabolised at 4 h,[4],65%
same,metabolised at 4 h,[5],30%
same,metabolised at 4 h,[6],30%
same,metabolised at 4 h,[7],25%
same,metabolised at 4 h,[8],6%
same,metabolised at 4 h,[9],6%
same,Stability,Blood [10],Stable
same,Stability,Blood [11],Stable
same,solubility,[12],8 mg/mL
same,solubility,[13],32 mg/mL
same,solubility,[14],33 mg/mL
